From article PMC6060247, “Disruption of Amino Acid Homeostasis by Novel ASCT2 Inhibitors Involves Multiple Targets” (Frontiers in Pharmacology, 2018)

Key:
SNAT1 (SLC38A1) = biological target: T1, SNAT1 (SLC38A1) (Homo sapiens, UniProt Q9H2H9); assay: glutamine uptake in Xenopus laevis oocytes expressing hSNAT1; format: cell-based
T1 sequence (Q9H2H9 1-487): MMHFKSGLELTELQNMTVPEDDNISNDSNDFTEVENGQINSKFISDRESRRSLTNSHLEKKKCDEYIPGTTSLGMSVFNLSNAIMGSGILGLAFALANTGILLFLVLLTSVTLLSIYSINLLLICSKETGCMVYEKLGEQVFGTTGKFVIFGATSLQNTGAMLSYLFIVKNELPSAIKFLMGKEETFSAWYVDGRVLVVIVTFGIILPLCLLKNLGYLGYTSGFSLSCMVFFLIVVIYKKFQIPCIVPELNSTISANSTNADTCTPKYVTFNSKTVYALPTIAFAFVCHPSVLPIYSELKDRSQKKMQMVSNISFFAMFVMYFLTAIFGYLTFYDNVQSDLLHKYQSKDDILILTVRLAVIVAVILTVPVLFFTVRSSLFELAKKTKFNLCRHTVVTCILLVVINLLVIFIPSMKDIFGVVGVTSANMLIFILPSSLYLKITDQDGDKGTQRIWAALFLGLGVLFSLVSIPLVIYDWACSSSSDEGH

LAT1 (SLC7A5) = biological target: T2, LAT1 (SLC7A5) (Rattus norvegicus, UniProt Q63016); assay: isoleucine uptake in Xenopus laevis oocytes expressing h4F2hc/rLAT1; format: cell-based
T2 construct: with human 4F2hc
T2 sequence (Q63016 whole entry): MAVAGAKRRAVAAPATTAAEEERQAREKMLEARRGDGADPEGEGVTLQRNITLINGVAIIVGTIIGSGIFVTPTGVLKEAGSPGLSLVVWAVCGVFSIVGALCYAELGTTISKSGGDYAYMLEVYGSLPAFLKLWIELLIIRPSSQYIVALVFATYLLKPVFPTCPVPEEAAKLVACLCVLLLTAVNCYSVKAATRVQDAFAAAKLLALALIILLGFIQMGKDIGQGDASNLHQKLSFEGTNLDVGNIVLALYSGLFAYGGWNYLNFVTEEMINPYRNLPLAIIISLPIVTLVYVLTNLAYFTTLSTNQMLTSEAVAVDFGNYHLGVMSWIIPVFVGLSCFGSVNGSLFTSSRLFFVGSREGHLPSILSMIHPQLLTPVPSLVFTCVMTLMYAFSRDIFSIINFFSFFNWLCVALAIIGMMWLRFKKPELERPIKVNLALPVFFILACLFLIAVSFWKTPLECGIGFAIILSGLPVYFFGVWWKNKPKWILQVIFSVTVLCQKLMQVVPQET
T2 sequence (P08195 103-630 partner): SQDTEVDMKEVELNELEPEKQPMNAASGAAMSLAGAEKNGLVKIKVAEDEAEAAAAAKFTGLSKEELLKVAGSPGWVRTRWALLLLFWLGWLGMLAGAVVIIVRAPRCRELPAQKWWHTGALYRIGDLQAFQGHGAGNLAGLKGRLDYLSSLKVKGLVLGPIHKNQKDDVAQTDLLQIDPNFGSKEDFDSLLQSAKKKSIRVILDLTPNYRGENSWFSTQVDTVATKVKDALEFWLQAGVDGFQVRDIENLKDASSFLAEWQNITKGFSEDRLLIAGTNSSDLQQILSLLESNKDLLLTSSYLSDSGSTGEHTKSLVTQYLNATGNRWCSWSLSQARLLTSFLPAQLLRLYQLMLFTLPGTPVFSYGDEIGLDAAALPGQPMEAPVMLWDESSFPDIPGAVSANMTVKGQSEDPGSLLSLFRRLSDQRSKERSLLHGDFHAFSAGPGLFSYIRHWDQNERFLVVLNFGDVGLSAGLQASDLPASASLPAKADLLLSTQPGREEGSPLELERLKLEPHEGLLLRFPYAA

Compound	glutamine uptake in Xenopus laevis oocytes expressing hSNAT1 (SNAT1 (SLC38A1))	isoleucine uptake in Xenopus laevis oocytes expressing h4F2hc/rLAT1 (LAT1 (SLC7A5))
NC(=O)CC[C@H](N)C(=O)O [glutamine]	Glutamine uptake was used to measure hSNAT1, hSNAT2, and hASCT2 activity	–
CC[C@H](C)[C@H](N)C(=O)O [isoleucine]	–	isoleucine transport was used to measure h4F2hc/rLAT1 activity
